The term IC50 denotes the point on the concentration scale where inhibition reaches its midpoint. The kinetic solubility is solubility judged after dilution from a stock solution rather than from solid.

Values after ≈ are worked out from the molar mass of the structure shown. Read-outs that look alike come from different tables or passages of the source.

These results are taken from paper PMC11951083, “Highly Specific Miniaturized Fluorescent Monoacylglycerol Lipase Probes Enable Translational Research” (Journal of the American Chemical Society, 2025).

For one data set, the target named is T1, mMAGL (Mus musculus, UniProt O35678).
T1 sequence (O35678 1-303): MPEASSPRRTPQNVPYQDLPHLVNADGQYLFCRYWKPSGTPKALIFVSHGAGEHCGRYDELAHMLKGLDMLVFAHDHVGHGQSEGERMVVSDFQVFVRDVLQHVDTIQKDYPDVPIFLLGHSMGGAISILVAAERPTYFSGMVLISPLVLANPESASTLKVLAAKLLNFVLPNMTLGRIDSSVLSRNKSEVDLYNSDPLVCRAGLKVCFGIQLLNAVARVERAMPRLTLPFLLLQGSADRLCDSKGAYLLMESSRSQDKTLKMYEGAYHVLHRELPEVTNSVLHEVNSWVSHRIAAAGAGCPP
Description: Native MS (RapidFire) 2-AG substrate assay, purified mouse MAGL. The class given is biochemical. Conditions: purified mouse MAGL, native MS substrate assay; read-out: IC50 mMAGL. The protocol:
(§1) In vitro MAGL Inhibition Assay
(§2) Compounds were profiled for MAGL inhibitory activity by determining the enzymatic activity by following the hydrolysis of the natural substrate 2-arachidonoylglycerol (2-AG), resulting in arachidonic acid, which can be followed by mass spectrometry. The 2-AG assay was carried out in 384 well assay plates (PP, Greiner Cat# 784201) in a total volume of 20 µL. Compound dilutions were made in 100% DMSO (VWR Chemicals 23500.297) in a polypropylene plate in 3-fold dilution steps to give a final concentration range in the assay from 12.5 µM to 0.8 pM. 0.25µL compound dilutions (100% DMSO) were added to 9 µL MAGL in assay buffer (50 mM TRIS (GIBCO, 15567-027), 1 mM EDTA (Fluka, 03690-100 mL), 0.01% (v/v) Tween. After shaking, the plate was incubated for 15 min at RT. To start the reaction, 10 µL 2-arachidonoylglycerol in assay buffer was added. The final concentrations in the assay were 50 pM MAGL and 8 µM 2-arachidonoylglyerol. After shaking and 30 min incubation at RT, the reaction was quenched by the addition of 40µL of ACN containing 4µM of d8-arachidonic acid. The amount of arachidonic acid was traced by an online SPE system (Agilent Rapidfire) coupled to a triple quadrupole mass spectrometer (Agilent 6460). A C18 SPE cartridge (G9205A) was used in an ACN/water liquid setup. The mass spectrometer was operated in negative electrospray mode following the mass transitions 303.1 → 259.1 for arachidonic acid and 311.1 → 267.0 for d8-arachidonic acid. The activity of the compounds was calculated based on the ratio of intensities [arachidonic acid / d8-arachidonic acid]. The lowest IC50 value that can be determined with high accuracy is approximately 0.025 nM.

The target in another data set is T2, cMAGL (Macaca fascicularis, UniProt A0A2K5V664).
T2 sequence (A0A2K5V664 11-297): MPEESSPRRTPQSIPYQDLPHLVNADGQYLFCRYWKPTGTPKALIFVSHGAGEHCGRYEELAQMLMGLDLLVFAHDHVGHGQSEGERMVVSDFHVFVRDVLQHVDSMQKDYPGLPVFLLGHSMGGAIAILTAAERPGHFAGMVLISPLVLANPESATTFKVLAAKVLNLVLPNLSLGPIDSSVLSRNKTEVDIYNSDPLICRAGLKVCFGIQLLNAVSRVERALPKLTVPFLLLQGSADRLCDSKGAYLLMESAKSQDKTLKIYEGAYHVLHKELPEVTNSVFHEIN
Put plainly: Native MS (RapidFire) 2-AG substrate assay, purified cynomolgus monkey MAGL. The class given is biochemical. The conditions noted are these: purified cynomolgus monkey MAGL, native MS substrate assay; read-out: IC50 cMAGL. The protocol: as §1, §2

The target of data set [1] is T3, MAGL (Homo sapiens, UniProt Q99685).
T3 sequence (Q99685 1-303): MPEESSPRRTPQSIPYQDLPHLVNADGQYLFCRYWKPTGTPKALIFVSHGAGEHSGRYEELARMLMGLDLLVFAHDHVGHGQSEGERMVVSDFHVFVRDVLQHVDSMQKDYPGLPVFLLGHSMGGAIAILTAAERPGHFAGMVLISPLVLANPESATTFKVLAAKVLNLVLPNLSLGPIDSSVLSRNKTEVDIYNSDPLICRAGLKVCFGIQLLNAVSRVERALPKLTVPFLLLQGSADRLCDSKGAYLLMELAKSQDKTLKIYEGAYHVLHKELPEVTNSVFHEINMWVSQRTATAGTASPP
Put plainly: Native MS (RapidFire) 2-AG substrate assay, purified human MAGL. The class given is biochemical. The conditions noted are these: purified human MAGL, native MS substrate assay; IC50 of covalent inhibitors time-dependent; read-out: IC50 hMAGL. The protocol: as §1, §2

A further data set has as its target T4, rMAGL (Rattus norvegicus, UniProt Q8R431).
T4 sequence (Q8R431 1-303): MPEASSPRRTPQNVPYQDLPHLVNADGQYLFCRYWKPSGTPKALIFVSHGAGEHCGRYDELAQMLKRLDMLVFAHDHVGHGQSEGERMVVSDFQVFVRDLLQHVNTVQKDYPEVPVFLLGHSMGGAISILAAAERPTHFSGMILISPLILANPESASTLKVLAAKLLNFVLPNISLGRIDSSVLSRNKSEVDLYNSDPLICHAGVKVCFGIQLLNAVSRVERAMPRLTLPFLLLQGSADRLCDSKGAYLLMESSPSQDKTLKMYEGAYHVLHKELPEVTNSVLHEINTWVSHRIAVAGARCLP
Description: Native MS (RapidFire) 2-AG substrate assay, purified rat MAGL. It counts as biochemical. Conditions: for loss of potency against rat or cynomolgus monkey orthologs: rat or cynomolgus monkey MAGL. Here is the method: as §1, §2

Data set [2] relates to serine hydrolases in the mouse brain proteome (MBP). Put plainly: Multiplex ABPP in mouse brain proteome. It counts as biochemical. Here is the method:
K = [L][P] = 0.5 [L]T (FP50 − 0.5 [L]T) = FP − 0.5 [L] […]
Mouse brain sample preparation
Mouse tissues were isolated according to guidelines approved by the ethical committee of Leiden University. Male mouse brain (27 weeks old) was homogenized with glass beads (2x 1 min, bullet blender, speed 8) using cold lysis buffer (20 mM Hepes pH 7.2, 1 mM MgCl 2, 2 U/mL Benzonase). The membrane and cytosol were separated by centrifugation. The membrane fraction was resuspended in Hepes/DTT buffer. Protein concentration was determined with Bradford Assay, and samples were diluted to a final concentration of 2.0 mg/mL. Samples were snap -frozen in liquid nitrogen and stored at -80 °C until further use.
Lysate (19 µL, 2 µg/µL) was thawed on ice. For comparative ABPP (irreversible probes), 1 µL of probe (20x stock in DMSO) or pure DMSO was added to the sample, vortexed briefly, and in cubated for 30 minutes at RT. For competitive ABPP (reversible probes), 0.5 µL of the reversible probe (40x stock in DMSO) or pure DMSO (as vehicle) was added to the sample, vortexed briefly, and incubated for 30 […]
minutes at RT. Subsequently, 0.5 µL MB064 (40x stock in DMSO) was added to the proteome sample, vortexed briefly, and incubated for 10 minutes at RT, after which 0.5 µL FP-Bodipy-FL (40x stock in DMSO) was added, vortexed briefly and incubated for 10 minutes at RT. The final volume was 20 - 20.5 µL (5 - 7.5% DMSO). The reaction was quenched by the addition of 7.5 µL of 4*Laemmli-buffer (final concentrations: 60 mM Tris (pH 6.8), 2% (w/v) SDS, 10% (v/v) glycerol, 1.25% (v/v) β-mercaptoethanol, 0.01% (v/v) bromophenol blue). 10 µL (14 µg protein) of the quenched reaction mixture was resolved on 10% acrylamide SDS-PAGE (180 V, 75 min). Fluorescence was measured using a Biorad ChemiDoc MP system (fluorescence channels Cy2, Cy3, Cy5). Gels were then stained using coomassie staining and imaged for protein loading control. Labeling of the respective proteins via MB064 and FP-BODIPY was visualized in two separate channels. […]
Activity based protein profiling (ABPP)
PBMCs were thawed, washed with 1 x PBS and equal amounts of cells were exposed to DMSO (D2650; Sigma-Aldrich) or MAGL inhibitor PF (PF-06795071) in DMSO for 30 min at room temperature with concentrations ranging from 1 nM to 1000 nM. Cells were washed with 1 x PBS and lysed in ice -cold lysis buffer (ab156035; Abcam), lysates were centrifuged at 14,000 x g for 15 minutes at 4°C and supernatants were collected. For ABPP experiments, cell lysates containing equal amounts of protein were incubated with the appropriate concentration of activity -based probe for 30 min at room temperature. The reaction was quenched for 30 min by adding SDS -PAGE loading buffer (NP0007, Thermo). Samples were then separated by SDS-PAGE and bands were detected ChemiDoc Imager (Bio-Rad Laboratories). Following detection, gels were stained with SimplyBlue™ SafeStain (LC6060, Thermo) for 1 hour with gentle agitation and excess stain was removed by destaining in ddH2O for 1 h with gentle agitation. Gels were imaged and protein bands were quantified using Image Lab software (Bio-Rad Laboratories).

A short description of data set [3]: High throughput kinetic solubility measurement. The conditions noted are these: phosphate buffer, pH 6.5, aqueous buffer, kinetic from dmso stock. It counts as physicochemical.
Data set [4] addresses T5, NanoLuc luciferase MAGL fusion protein (Homo sapiens, UniProt Q99685).
T5 sequence (Q99685 1-303): T3 sequence (Q99685 1-303)
Put plainly: Cellular MAGL NanoBRET target engagement assay in live HEK293 cells. The class given is cell-based. Conditions: live HEK293 cells; read-out: IC50 nanoBRET. Here is the method:
This assay was performed as first described before.20
Compounds were profiled by a novel cellular MAGL NanoBRET™ Target Engagement assay, which measures the apparent affinity of test compounds by competitive displacement of a Roche -developed Tracer (WO2021058443, Example 2 121, or probe 4a, respectively), reversibly bound to a NanoLuc ® luciferase MAGL fusion protein in cells.
A HEK293A stable cell line expressing NanoLuc_MAGL was established at Roche and assigned as HEK293A_NanoLuc_MAGL clone #43. A fixed concentration of tracer is added to cells expressing the NanoLuc®_MAGL fusion protein to generate a BRET reporter complex. The introduction of competing compounds results in a dose -dependent decrease in NanoBRET™ energy transfer, which allows quantification of the intracellular affinity of the target protein for the test compound.
HEK293A_NanoLuc_MAGL clone #43 cells were cultured in DMEM (Gibco 31966) with 10% FBS and 800 ug/ml G418. The NanoBRET assay was performed by seeding 5000 cells/well in Costar low - volume white 384-well plate in assay buffer (1% FBS in HBSS), followed by adding the tracer (50 nM Example 21 or 100 nM 4a final concentration) and serial dilutions of test compounds. After 2 hours of incubation, Nanoluciferase substrates and extracellular inhibitors were added following the manufacturer's protocol (Promega, #N2520), and the NanoBRET signaling were quantified with the Paradigm (Molecular Devices).
(In general: In BRET a luciferase serves as donor, and the signal depends on an acceptor being close.)

Another data set deals with rat MAGL. Conditions: cited from earlier work.
Data set [5] addresses T3, MAGL. Also on record: method as in earlier work. The conditions noted are these: Table S2, literature compounds; ref (1), (6)-(12) as indicated per compound; cited from earlier work.
Setting [6] is: purified rat MAGL, native MS substrate assay, read-out: IC50 rMAGL.

As to `O=C(O[C@H](CO)C(F)(F)F)N1CC2(CC(CC3=C4C=CC(c5ccc[nH]5)=[N+]4[B-](F)(F)n4cccc43)C2)C1` [Compound 1a], the IC50 turned out to be 0.31 nM on mMAGL, 0.4 nM at cMAGL, 0.47 nM at MAGL [1] and 0.44 nM at rMAGL (setting [6]). The “labeling selectivity in ABPP (covalent probes)” value in [2] (mouse brain homogenates, broad range of concentrations) is reported as “only selective irreversible labeling of the two MAGL isoforms”. The kinetic solubility in data set [3] is less than 1 µg/mL.

As for `O=C1NC2(CO1)CN(C(=O)N1CC3(CCC(CC4=C5C=CC=[N+]5[B-](F)(F)n5cccc54)CC3)C1)C2` [Compound 3], the 50% inhibitory concentration (IC50) at mMAGL was determined as 0.96 nM; on cMAGL, 3.86 nM; on MAGL [1], 0.83 nM; in [4] it was 557 nM; at rMAGL (SI Table 1, read-out: IC50 against purified MAGL ± SEM, Rat) it was 3.54 ± 0.37 nM. Further, the “loss of potency against rat or cynomolgus monkey orthologs” value at rMAGL was “less than 4 fold”. In [3], this molecule had a solubility (kinetic) of 139 µg/mL (≈ 288 µM).

Consider `O=C(N1CC2(CC(CC3=C4C=CC(c5ccc[nH]5)=[N+]4[B-](F)(F)n4cccc43)C2)C1)N1CC2(CC(n3cnc(C4CC4)n3)C2)C1` [Compound 5a], for which the IC50 on mMAGL was found to be 0.9 nM; at cMAGL, 0.77 nM; on MAGL [1], 0.73 nM; on rMAGL (setting [6]), 2.23 nM. Further, on rMAGL, the “loss of potency against rat or cynomolgus monkey orthologs” value is “less than 4 fold”. Besides, the “selectivity in competitive ABPP (reversible probes)” value in [2] (mouse brain proteome, membrane and cytosolic fraction, 1 μM) is listed as “no other potential off-target detectable”. In addition, in [3], the kinetic solubility is less than 0.1 µg/mL.

Turning to `O=C(Oc1ccc([N+](=O)[O-])cc1)N1CCC(C(O)(c2ccc3c(c2)OCO3)c2ccc3c(c2)OCO3)CC1` [JZL-184], the “potency on rat MAGL” value in the data set on rat MAGL is given as “severely reduced potency”.

Consider `CN1/C(=C/C=C/C=C/C2=[N+](CCCCCC(=O)NCc3cn(CCOc4ccc(C(c5ccc(Cl)cc5)N5CCN(C(=O)OC(C(F)(F)F)C(F)(F)F)CC5)cc4)nn3)c3ccccc3C2(C)C)C(C)(C)c2ccccc21` (stereo not shown) [LEI-463], for which, on MAGL [5], the 50% inhibitory concentration (IC50) was roughly 10 nM.
